Reference: patent US12581252B2, “Substituted pyrrolo[3,4-b]pyridines as PI3K-α inhibitors” (Relay Therapeutics, Inc., priority 2020, dated 2026)

Biological target: H1047R PIK3CA enzyme (Homo sapiens, UniProt P42336, H1047R)
Assay: ADP-Glo Biochemical PIK3CA Kinase Assay

Sequence of H1047R PIK3CA enzyme (P42336 whole entry H1047R): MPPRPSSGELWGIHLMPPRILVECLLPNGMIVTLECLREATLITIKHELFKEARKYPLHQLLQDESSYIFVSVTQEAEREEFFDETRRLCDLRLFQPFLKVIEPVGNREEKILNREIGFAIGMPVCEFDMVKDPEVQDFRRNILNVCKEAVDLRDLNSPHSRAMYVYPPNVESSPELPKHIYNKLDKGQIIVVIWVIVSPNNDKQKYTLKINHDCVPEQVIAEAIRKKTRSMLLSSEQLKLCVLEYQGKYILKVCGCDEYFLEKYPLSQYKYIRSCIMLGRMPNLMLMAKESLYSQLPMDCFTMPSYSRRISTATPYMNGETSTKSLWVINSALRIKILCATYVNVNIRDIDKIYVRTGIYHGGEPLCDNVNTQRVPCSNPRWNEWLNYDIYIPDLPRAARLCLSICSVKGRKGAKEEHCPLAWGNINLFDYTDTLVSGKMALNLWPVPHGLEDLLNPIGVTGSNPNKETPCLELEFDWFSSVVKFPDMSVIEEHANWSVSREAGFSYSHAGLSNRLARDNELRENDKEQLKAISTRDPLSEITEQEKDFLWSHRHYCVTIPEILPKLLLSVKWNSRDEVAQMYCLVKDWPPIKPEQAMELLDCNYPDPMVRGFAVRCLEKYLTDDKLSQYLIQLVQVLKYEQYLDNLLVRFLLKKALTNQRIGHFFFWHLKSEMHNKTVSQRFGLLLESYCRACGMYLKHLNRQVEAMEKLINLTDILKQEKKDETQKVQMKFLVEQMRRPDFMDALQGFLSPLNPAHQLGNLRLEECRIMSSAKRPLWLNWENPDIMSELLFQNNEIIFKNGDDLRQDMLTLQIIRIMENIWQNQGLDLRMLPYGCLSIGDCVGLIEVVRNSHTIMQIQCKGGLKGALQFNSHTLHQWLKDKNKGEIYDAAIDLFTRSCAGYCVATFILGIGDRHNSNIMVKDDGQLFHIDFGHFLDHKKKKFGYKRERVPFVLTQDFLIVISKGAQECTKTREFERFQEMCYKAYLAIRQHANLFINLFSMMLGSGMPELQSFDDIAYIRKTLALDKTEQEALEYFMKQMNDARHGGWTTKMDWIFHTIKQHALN
Sequence of H1047R PIK3CA enzyme (P27986 whole entry partner): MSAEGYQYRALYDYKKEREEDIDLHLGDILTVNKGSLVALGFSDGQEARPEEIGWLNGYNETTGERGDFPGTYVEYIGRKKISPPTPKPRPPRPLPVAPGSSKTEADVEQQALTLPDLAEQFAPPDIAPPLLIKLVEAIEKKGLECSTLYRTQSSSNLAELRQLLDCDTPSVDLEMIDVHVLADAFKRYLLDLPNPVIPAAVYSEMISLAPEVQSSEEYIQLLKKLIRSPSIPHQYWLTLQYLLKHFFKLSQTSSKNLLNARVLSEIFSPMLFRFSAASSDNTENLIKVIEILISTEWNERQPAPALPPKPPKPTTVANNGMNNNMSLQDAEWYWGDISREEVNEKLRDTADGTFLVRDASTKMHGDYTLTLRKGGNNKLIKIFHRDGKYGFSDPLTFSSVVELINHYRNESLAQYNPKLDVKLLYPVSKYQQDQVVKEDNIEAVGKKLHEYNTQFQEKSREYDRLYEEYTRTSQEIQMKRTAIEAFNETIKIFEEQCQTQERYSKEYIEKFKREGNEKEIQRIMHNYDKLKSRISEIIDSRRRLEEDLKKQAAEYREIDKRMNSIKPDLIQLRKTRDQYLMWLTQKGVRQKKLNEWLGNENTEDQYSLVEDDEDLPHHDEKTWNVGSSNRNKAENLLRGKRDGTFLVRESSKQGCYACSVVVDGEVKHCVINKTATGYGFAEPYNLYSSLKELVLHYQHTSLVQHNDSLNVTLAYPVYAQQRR

| IC50 [nM] | Compound |
| --- | --- |
| ≤ 100 | O=C(Nc1cc(Br)cc2c1C(c1cc(F)ccc1Cl)NC2=O)c1cc(Cl)cc(Cl)c1 (stereo not drawn) [Compound I-521] |
| ≤ 100 | Cc1cnccc1-c1cc(NC(=O)c2cc(F)cc(Cl)c2)c2c(n1)C(=O)NC2c1cc(F)ccc1Cl (stereo not drawn) [Compound I-503] |
| 100 to 500 | O=C(Nc1cc(-c2ccc3c(c2)OC(F)(F)O3)cc2c1C(c1cc(F)ccc1Cl)NC2=O)c1cc(F)cc(C(F)(F)F)c1 (stereo not drawn) [Compound I-738] |
| ≤ 100 | O=C(Nc1cc(-c2ccc(=O)n(C(F)F)c2)cc2c1C(c1cc(F)ccc1Cl)NC2=O)c1cc(F)cc(C(F)(F)F)c1 (stereo not drawn) [Compound I-1768] |
| 500 to 1000 | O=C1N[C@@H](c2cc(F)ccc2Cl)c2c(NC(=O)N3C[C@H](O)c4cc(F)ccc43)cccc21 (single isomer, unassigned) [Compound I-2126] |
| ≤ 100 | COc1ccc(-c2cc(NC(=O)c3cc(F)cc(C(F)(F)F)c3)c3c(c2)C(=O)NC3c2cc(F)ccc2Cl)nn1 (stereo not drawn) [Compound I-1438] |
| 10000 to 100000 | O=C1N[C@@H](c2ccccc2Cl)c2c(NC(=O)N3C[C@@](O)(C(F)(F)F)c4cc(F)ccc43)cccc21 (single isomer, unassigned) [Compound I-2685] |
| 100 to 500 | Cc1ccccc1C1NC(=O)c2c(C(N)=O)ncc(NC(=O)c3cc(F)cc(C(F)(F)F)c3)c21 (stereo not drawn) [Compound I-265] |
| 1000 to 10000 | Cn1cc(-c2cc(NC(=O)c3cc(F)cc(Cl)c3)c3c(n2)C(=O)N[C@@H]3c2cc(F)ccc2Cl)cn1 [Compound I-384] |
| 1000 to 10000 | O=C(Nc1cc(N2CC(F)(F)C2)nc2c1[C@@H](c1cc(F)ccc1Cl)NC2=O)c1cc(F)cc(C(F)(F)F)c1 [Compound I-367] |
| 1000 to 10000 | O=C(Nc1cc(-c2cn3ccnc3cn2)cc2c1[C@@H](c1cc(F)ccc1Cl)NC2=O)c1cc(F)cc(C(F)(F)F)c1 [Compound I-1329] |
| 10000 to 100000 | C[C@@H](c1nn[nH]c1C(=O)Nc1cccc2c1[C@@H](c1cc(F)ccc1Cl)NC2=O)C(F)(F)F (single isomer, unassigned) [Compound I-2270] |
| 100 to 500 | O=C(Nc1cc(Br)cc2c1C(c1cc(F)ccc1Cl)NC2=O)c1ccc(Cl)c(C(F)(F)F)c1 (stereo not drawn) [Compound I-952] |
| 10000 to 100000 | Cc1ccccc1C1NC(=O)c2cccc(NC(=O)c3nc(C)n4ccc(Cl)cc34)c21 (stereo not drawn) [Compound I-277, 7-Chloro-N-(1-oxo-3-(o-tolyl)isoindolin-4-yl)-3-methylimidazo[1,5-a]pyridine-1-carboxamide] |
| 10000 to 100000 | O=C(O)c1cc(F)cc(C(=O)Nc2cc(Br)cc3c2C(c2cc(F)ccc2Cl)NC3=O)c1 (stereo not drawn) [Compound I-954] |
| 10000 to 100000 | O=C1N[C@@H](c2cc(F)ccc2Cl)c2c(NC(=O)[C@H]3CCCNC3)cc(-c3ccc4ncnn4c3)cc21 (racemic) [Compound I-1847] |
| 10000 to 100000 | O=C(Nc1cccc2c1C(c1nc(C(F)(F)F)cs1)NC2=O)c1cc(F)cc(C(F)(F)F)c1 (stereo not drawn) [Compound I-2330] |
| ≤ 100 | O=C(Nc1cc(Br)cc2c1C(c1cc(Cl)ccc1Cl)NC2=O)c1cc(F)cc(C(F)(F)F)c1 (stereo not drawn) [Compound I-763] |
| 1000 to 10000 | COc1ccc2c(c1)N(C(=O)Nc1cccc3c1C(c1cc(F)ccc1Cl)NC3=O)CC2 (stereo not drawn) [Compound I-2439] |
| ≤ 100 | O=C(Nc1cc(N2CC(O)C2)nc2c1C(c1cc(F)ccc1Cl)NC2=O)c1cc(F)cc(C(F)(F)F)c1 (stereo not drawn) [Compound I-575] |
| 500 to 1000 | N#CCc1cc(NC(=O)N2C[C@@](O)(C(F)F)c3cc(F)ccc32)c2c(c1)C(=O)N[C@@H]2c1cc(F)ccc1Cl (single isomer, unassigned) [Compound I-2600] |
| ≤ 100 | CC(C)(O)C(=O)Nc1cc(NC(=O)c2cc(F)cc(C(F)(F)F)c2)c2c(c1)C(=O)NC2c1cc(F)ccc1Cl (stereo not drawn) [Compound I-591] |
| 1000 to 10000 | O=C1N[C@@H](c2cc(F)ccc2Cl)c2c(NC(=O)N3C[C@](O)(C(F)(F)F)c4cc(F)ccc43)ccc(Cl)c21 (single isomer, unassigned) [Compound I-2619] |
| 1000 to 10000 | O=C(Nc1cc(Br)cc2c1[C@@H](c1cc(F)ccc1C(F)F)NC2=O)c1cc(F)cc(C(F)(F)F)c1 [Compound I-798] |
